# Key:
# [1] = test system: alcohol dependence; details: 20 to 80 mg daily oral dosing; double-blind, placebo-controlled; Mason et al. 1999; cited from earlier work
# [2] = test system: patients with alcohol dependence; assay: Studies 12014A, 12023A and 12013A taken together (statements on all three studies); type: in vivo, human; details: for Difference between nalmefene and placebo in HDDs and TAC, compared with total study population: all three studies
# Description: The efficacy of nalmefene in the reduction of alcohol consumption in patients with alcohol dependence (DSM-IV) has been evaluated in two efficacy studies (Study 12014A and Study 12023A) and one safety study (Study 12013A) as described in the examples. All three studies were randomized, double blind, parallel-group and placebo-controlled.
# The studies included outpatients, aged […], with a primary diagnosis of alcohol dependence. A patient was eligible for participation in the study if, in the 4 weeks preceding the Screening Visit (Baseline period), he/she had >6 HDDs, at least a medium DRL (calculated as mean daily alcohol consumption in g/day i.e. >40 g/day for men and >20 g/day for women calculated as mean daily alcohol consumption over the 4 week period preceding the screening visit), and ≦14 consecutive abstinent days. The timeline followback (TLFB) method was used to obtain estimates of the patient's daily drinking.
# At the initial visit (screening visit), the patients' clinical status, social situation, and alcohol consumption pattern were evaluated. After a 1- to 2-week observation period the drinking risk level was re-assessed by calculating mean daily alcohol consumption in g/day over the 1- to 2-week observation period, and treatment with nalmefene was initiated together with counseling with focus on motivating the patients to adhere to the treatment and to change their drinking behavior.
# The efficacy of nalmefene was measured using two co-primary endpoints: the change in the monthly number of heavy drinking days (HDDs) and the change in the mean daily total alcohol consumption (TAC) per month (=28 days).
# The efficacy of nalmefene on the reduction of alcohol consumption in patients with alcohol dependence (DSM-IV) was evaluated in two efficacy studies (Study 12014A and Study 12023A). Both studies were randomised, double blind, two-parallel group, placebo controlled, and after 6 months of treatment, patients receiving nalmefene were re-randomised to receive either placebo or nalmefene in a 1 month run out period. The efficacy of nalmefene was also evaluated in a randomised, double blind, two parallel group, placebo controlled 1 year safety study (Study 12013A). The studies included 1941 patients, 1144 of whom were treated with nalmefene 18 mg in an as-needed dosing regimen.
# The efficacy of nalmefene was measured using two co-primary endpoints: the change in the monthly number of heavy drinking days (HDDs) and the change in the mean daily total alcohol consumption (TAC) per month (=28 days). A HDD was defined as a day with a consumption ≧60 g alcohol for men and 40 g for women. The change in HDD and TAC over time in patients treated with nalmefene or placebo is furthermore reflected in FIGS. 1a and 1b-12a and 12b.
# [3] = test system: alcohol dependence; details: 5, 20 and 40 mg daily doses; Anton et al. 2004; cited from earlier work
# [4] = test system: alcohol dependence; details: 20 mg taken when the patient experienced a craving for alcohol; Karhuvaara et al. 2007; cited from earlier work
smiles,measurement,setting,value
"C=C1CC[C@@]2(O)[C@H]3Cc4ccc(O)c5c4[C@@]2(CCN3CC2CC2)[C@H]1O5 [nalmefene, 17-(cyclopropylmethyl)-4,5-alpha-epoxy-6-methylenemorphinan-3,14-diol]",Effect in the management of alcohol dependence,[1],good effect
same,"Difference between nalmefene and placebo in HDDs and TAC, compared with total study population",[2]; patients excluding ERs,more pronounced
same,"Difference between nalmefene and placebo in HDDs and TAC, compared with total study population",[2]; patients with High DRL at baseline,more pronounced
same,"Difference between nalmefene and placebo in HDDs and TAC, compared with total study population",[2]; patients with High DRL at baseline and randomization,more pronounced
same,Reducing the number of HDDs and TAC versus placebo,"[2]; month 6, two 6 month efficacy studies and 12 month safety study, total study population",superior to placebo
same,Superiority over placebo in the management of alcohol dependence,[3],no evidence of superiority
same,Effect over placebo in the management of alcohol dependence,[4],good effect
